Reference: patent US11732003B2, “Mechanical method of maintaining narrow residence time distributions in continuous flow systems” (priority 2017, dated 2023)
Where two headings read alike, the source gives them in different places.

Key:
Phi6 [1] = details: in-line continuous flow, 1 M acetic acid added at 0.75 mL/min to 1 mL/min feed
Protocol: This representative example describes the use of a continuous flow system to carry out low pH virus inactivation.
A system consisting of a main feed pump, an acid addition pump, and a base addition pump was used to inactivate virus under continuous flow conditions. A mAb solution was spiked with Phi6 and was connected to the main feed pump inlet. The Phi6 target spike level was 1×10^8 pfu/mL. […] The feed flow rate was set to 1 mL/min. Acid was added into the main stream at a flow rate of 0.75 mL/min. The fluid then passed through a static mixer and a length of tubing designed to contain a particular volume (targeting a desired residence time). Different lengths of tubing were used to contain the required volume for each target average residence time (1, 2, 3, 4, 5, 15 min) after accounting for the dead volume from the valves and pH probe between the acid addition point and the beginning of the incubation chamber. […] At the outlet of the incubation chamber, the material was neutralized by the addition of base into the main line at a flow rate of 0.4 mL/min. The fluid passed through another static mixer and then the neutralized samples were collected at the outlet and assayed for infectivity using the plaque assay. These experiments were carried out at room temperature, 22-25° C. Control samples were also assayed. For the control samples, the pH was maintained at the feed pH level but the samples were diluted similarly to the actual samples using the background buffer.

Phi6 [2] = details: static, pH 3.6 (8.7 M acetic acid), mAb 5 mg/mL, 22-25° C.
Protocol: In this representative experiment, the purpose was to evaluate the inactivation kinetics of an enveloped bacteriophage virus (Phi6) at low pH conditions. The objective was to determine the exposure time required for complete inactivation.
A monoclonal antibody (mAb) was purified by standard Protein A chromatography and prepared at a concentration of 5 mg/mL. […] Human serum albumin (HSA) (0.25% v/v) was added for Phi6 stability. Following confirmation of pH, the virus spike was added to the sample reservoir containing the mAb and vortexed to ensure a well-mixed system. The Phi6 target spike level was 1×10^7 pfu (plaque forming units)/mL. Within 0.3 minutes of the virus addition, a 1 mL sample was removed and transferred to a tube containing a previously determined volume of 2 M Tris Base, pH 10 to neutralize (pH 6-8) the sample and quench the inactivation step. The tube was vortexed after the base addition. This process of removing and neutralizing a sample was repeated for each time point. These experiments were carried out at room temperature, 22-25° C. Control samples at the initial and final time points were also analyzed. For the control samples, the pH was maintained at the feed pH level (pH 6.3) but the samples were diluted similarly to the actual samples using the background buffer at pH 6.3.

[3] = test system: xenotropic murine leukemia virus (XMuLV); details: static, mAb 18 g/L; for Time to Complete Inactivation: XMuLV
Protocol: The purpose of this study was to evaluate the virus inactivation kinetics of xenotropic murine leukemia virus (XMuLV, an enveloped virus commonly used for clearance studies of monoclonal antibody products, under low pH conditions. The objective was to determine the exposure time required for complete inactivation.
Following confirmation of pH, the virus spike was added to the sample reservoir containing the mAb and vortexed to ensure a well-mixed system. The XMuLV target spike level was 1×10^7 TCID50/mL (TCID50=Tissue Culture Infection Dose) (4% spike v/v). Within 0.3 minutes of the virus addition, a 1 mL sample was removed and transferred to a tube containing a previously determined volume of 2 M Tris Base to neutralize (pH 6-8) the sample and quench the inactivation step. The tube was vortexed after the base addition. This process of removing and neutralizing a sample was repeated for each time point. These experiments were carried out at room temperature, 22-25° C. Control samples at the initial and final time points were also analyzed. For the control samples, the pH was maintained at the feed pH level but the samples were diluted similarly to the actual samples using the background buffer.
The neutralized samples were assayed for infectivity using the cell-based TCID50 infectivity assay using PG4 indicator cells (Bolton G, Cabatingan M, Rubino M, et al. Normal-flow virus filtration:detection and assessment of the endpoint in bio-processing. Biotechnol Appl Biochem 2005; 42: 133-42). To mitigate cytotoxicity and quench the virus inactivation, samples were diluted 1:50 with ten-fold serial dilutions in cell culture media and then 100 μl aliquots of each dilution were added to a 96-well plate. Following incubation at 37° C. in 5% CO2 for 7 days, infected wells were visually assessed for cytopathic effect (CPE). Titers and LRVs were calculated using standard methods (ICH. Guidance on Viral Safety Evaluation of Biotechnology Products Derived From Cell Lines of Human or Animal Origin. In: Use ICoHoTRfRoPfH, ed. Geneva, Switzerland: ICH, 1998). To determine the LRV at each time point, the titer of the time point was subtracted from the titer of the closest control time point.

Phi6 [4] = assay: Static detergent-based virus inactivation, plaque assay for infectivity; assay type: cell-based, bacteriophage virus
Protocol: The purpose of this study was to examine detergent-based virus inactivation kinetics. In this representative experiment, two different concentrations (0.1% and 1.0% v/v) of a detergent, Triton X-100, were used to inactivate a bacteriophage virus, Phi6.
The virus spike was added and vortexed to ensure a well-mixed system. […] Detergent was added to reach the desired concentrations of 0.1% and 1.0% v/v. At various time points, a sample was removed and quenched by adding it to buffer at a 1:1000 dilution ratio. The tubes were vortexed after the detergent addition.

CC(=O)O [acetic acid]
Phi6 LRV (Phi6 [1]; average residence time 1 min): ≥6.8 | Phi6 LRV (Phi6 [1]; average residence time 2 min): ≥6.8 | Phi6 LRV (Phi6 [1]; average residence time 3 min): ≥6.8 | Phi6 LRV (Phi6 [1]; average residence time 4 min): ≥6.8 | Phi6 LRV (Phi6 [1]; average residence time 5 min): ≥6.8 | Phi6 LRV (Phi6 [1]; average residence time 15 min): ≥6.8 | Phi6 Log Reduction Values (LRV) (Phi6 [2]; inactivation time 1 min): ≥6.8 | Phi6 Log Reduction Values (LRV) (Phi6 [2]; inactivation time 2 min): ≥6.8 | Phi6 Log Reduction Values (LRV) (Phi6 [2]; inactivation time 3 min): ≥6.8 | Phi6 Log Reduction Values (LRV) (Phi6 [2]; inactivation time 4 min): ≥6.8 | Phi6 Log Reduction Values (LRV) (Phi6 [2]; inactivation time 5 min): ≥6.8 | Phi6 Log Reduction Values (LRV) (Phi6 [2]; inactivation time 15 min): ≥6.8 | Time to Complete Inactivation ([3]; pH 4.0 (8.7 M acetic acid)): ≤15 min | Time to Complete Inactivation ([3]; pH 4.2 (8.7 M acetic acid)): ≤30 min | XMuLV LRV ([3]; pH 3.5 (8.7 M acetic acid), inactivation time 0.3 min): 4.0 | XMuLV LRV ([3]; pH 3.5 (8.7 M acetic acid), inactivation time 1 min): ≥5.4 | XMuLV LRV ([3]; pH 3.5 (8.7 M acetic acid), inactivation time 2 min): ≥5.4 | XMuLV LRV ([3]; pH 3.5 (8.7 M acetic acid), inactivation time 3 min): ≥5.4 | XMuLV LRV ([3]; pH 3.5 (8.7 M acetic acid), inactivation time 4 min): ≥5.4 | XMuLV LRV ([3]; pH 3.5 (8.7 M acetic acid), inactivation time 5 min): ≥5.5 | XMuLV LRV ([3]; pH 3.5 (8.7 M acetic acid), inactivation time 15 min): ≥5.5 | XMuLV LRV ([3]; pH 3.5 (8.7 M acetic acid), inactivation time 30 min): ≥5.5 | XMuLV LRV ([3]; pH 3.5 (8.7 M acetic acid), inactivation time 60 min): ≥5.5 | XMuLV LRV ([3]; pH 3.7 (8.7 M acetic acid), inactivation time 0.3 min): 3.6 | XMuLV LRV ([3]; pH 3.7 (8.7 M acetic acid), inactivation time 1 min): ≥5.5 | XMuLV LRV ([3]; pH 3.7 (8.7 M acetic acid), inactivation time 2 min): ≥5.5 | XMuLV LRV ([3]; pH 3.7 (8.7 M acetic acid), inactivation time 3 min): ≥5.5 | XMuLV LRV ([3]; pH 3.7 (8.7 M acetic acid), inactivation time 4 min): ≥5.5 | XMuLV LRV ([3]; pH 3.7 (8.7 M acetic acid), inactivation time 5 min): ≥5.7 | XMuLV LRV ([3]; pH 3.7 (8.7 M acetic acid), inactivation time 15 min): ≥5.7 | XMuLV LRV ([3]; pH 3.7 (8.7 M acetic acid), inactivation time 30 min): ≥5.7 | XMuLV LRV ([3]; pH 3.7 (8.7 M acetic acid), inactivation time 60 min): ≥5.7 | XMuLV LRV ([3]; pH 4.0 (8.7 M acetic acid), inactivation time 0.3 min): 1.6 | XMuLV LRV ([3]; pH 4.0 (8.7 M acetic acid), inactivation time 1 min): 4.7 | XMuLV LRV ([3]; pH 4.0 (8.7 M acetic acid), inactivation time 2 min): 5.2 | XMuLV LRV ([3]; pH 4.0 (8.7 M acetic acid), inactivation time 3 min): 5.3 | XMuLV LRV ([3]; pH 4.0 (8.7 M acetic acid), inactivation time 4 min): 5.2 | XMuLV LRV ([3]; pH 4.0 (8.7 M acetic acid), inactivation time 5 min): 5.6 | XMuLV LRV ([3]; pH 4.0 (8.7 M acetic acid), inactivation time 15 min): ≥5.4 | XMuLV LRV ([3]; pH 4.0 (8.7 M acetic acid), inactivation time 30 min): ≥5.4 | XMuLV LRV ([3]; pH 4.0 (8.7 M acetic acid), inactivation time 60 min): ≥5.4 | XMuLV LRV ([3]; pH 4.2 (8.7 M acetic acid), inactivation time 0.3 min): 1.5 | XMuLV LRV ([3]; pH 4.2 (8.7 M acetic acid), inactivation time 1 min): 3.3 | XMuLV LRV ([3]; pH 4.2 (8.7 M acetic acid), inactivation time 2 min): 3.5 | XMuLV LRV ([3]; pH 4.2 (8.7 M acetic acid), inactivation time 3 min): 3.9 | XMuLV LRV ([3]; pH 4.2 (8.7 M acetic acid), inactivation time 4 min): 4.0 | XMuLV LRV ([3]; pH 4.2 (8.7 M acetic acid), inactivation time 5 min): 4.2 | XMuLV LRV ([3]; pH 4.2 (8.7 M acetic acid), inactivation time 15 min): 4.6 | XMuLV LRV ([3]; pH 4.2 (8.7 M acetic acid), inactivation time 30 min): ≥5.7 | XMuLV LRV ([3]; pH 4.2 (8.7 M acetic acid), inactivation time 60 min): ≥5.7

Triton X-100
Phi6 LRV (Phi6 [4]; 0.1% v/v Triton X-100, mAb 15 mg/mL, inactivation time 1 min): ≥5.2 | Phi6 LRV (Phi6 [4]; 0.1% v/v Triton X-100, mAb 15 mg/mL, inactivation time 2 min): ≥5.2 | Phi6 LRV (Phi6 [4]; 0.1% v/v Triton X-100, mAb 15 mg/mL, inactivation time 3 min): ≥5.2 | Phi6 LRV (Phi6 [4]; 0.1% v/v Triton X-100, mAb 15 mg/mL, inactivation time 4 min): ≥5.2 | Phi6 LRV (Phi6 [4]; 0.1% v/v Triton X-100, mAb 15 mg/mL, inactivation time 5 min): ≥5.2 | Phi6 LRV (Phi6 [4]; 0.1% v/v Triton X-100, mAb 15 mg/mL, inactivation time 15 min): ≥5.2 | Phi6 LRV (Phi6 [4]; 0.1% v/v Triton X-100, mAb 15 mg/mL, inactivation time 30 min): ≥5.2 | Phi6 LRV (Phi6 [4]; 1.0% v/v Triton X-100, mAb 15 mg/mL, inactivation time 1 min): ≥6.2 | Phi6 LRV (Phi6 [4]; 1.0% v/v Triton X-100, mAb 15 mg/mL, inactivation time 2 min): ≥6.2 | Phi6 LRV (Phi6 [4]; 1.0% v/v Triton X-100, mAb 15 mg/mL, inactivation time 3 min): ≥6.2 | Phi6 LRV (Phi6 [4]; 1.0% v/v Triton X-100, mAb 15 mg/mL, inactivation time 4 min): ≥6.2 | Phi6 LRV (Phi6 [4]; 1.0% v/v Triton X-100, mAb 15 mg/mL, inactivation time 5 min): ≥6.2 | Phi6 LRV (Phi6 [4]; 1.0% v/v Triton X-100, mAb 15 mg/mL, inactivation time 15 min): ≥6.2 | Phi6 LRV (Phi6 [4]; 1.0% v/v Triton X-100, mAb 15 mg/mL, inactivation time 30 min): ≥6.2
